Drawing on a melting point compilation (Tetko et al.; mined from patent text by program, amines drawn as free bases though some values may be those of a salt), this text covers melting point for 87 compounds.

The compound `CC(C)Cc1nn(C)c(=O)c2cn(Cc3cccc4ccccc34)cc12` returned a melting point of 110 to 112 °C.

The compound `Cc1cccc(Br)c1C(=O)c1sc(Nc2ccc(N3CCOCC3)cc2)nc1N` gave a melting point of 105 to 125 °C.

`CCC1C(=O)c2c(cc(O)c(Cl)c2Cl)C1c1ccccc1` (configuration not stated): the melting point lay in the range of 220 to 222 °C.

The compound `Cc1c(F)c(Oc2cccc(C(=N)N)c2)nc(Oc2cccc(C(=N)N)c2)c1F` returned a melting point above 210 °C.

As to `O=C(O)Cc1cccc(C(=O)c2ccccc2)c1[N+](=O)[O-]`, the melting point lay within 160 to 162 °C.

`CCOC1(OCC)OC(C)=C(C(=O)Nc2ccc(Cl)cc2)[C@@H](NC(C)=O)[C@@H]1C` (relative stereo) came in with a melting point of 199 to 201 °C.

`CN(C)Cc1cc(C(=O)c2ccccc2)cc(C(C)(C)C)c1O` had a melting point of 129 °C.

With `Fc1ccc2[nH]cc(C3=CCN(CC4COc5ccc6ncccc6c5O4)CC3)c2c1` (configuration not stated), the melting point came out at 184 °C.

For the compound `Cc1nc(-c2ccc(Cl)cc2)sc1C(=O)N[C@H](C)[C@](O)(Cn1cncn1)c1ccc(F)cc1F`, the melting point was in the range of 159 to 160 °C.

The compound `NC(c1ccccc1)c1ccc(OCCCCOc2ccc(C(N)c3ccccc3)cc2)cc1` (configuration not stated) showed a melting point of 120 to 123 °C.

`COCCc1nc2c(N)nc(C)c(C)c2n1NC1CCOCC1` yielded a melting point of 110 to 120 °C.

For `CCOC(=O)/C=C/c1c(-c2ccc(F)cc2)n(C(C)C)c(=O)c2ccccc12`, the melting point lay in the range of 167 to 169 °C.

Take `COc1ccc(CSc2nnc(-c3ccc4[nH]ncc4c3)o2)cc1C#N`: the melting point lay within 192 to 193 °C.

As for `COCCNC(N)=Nc1nc(-c2cccc(CNC(=O)CN)c2)cs1`, the melting point lay in the range of 66 to 67 °C.

`CN(C)c1ccc(-c2[nH]nc3c2C(=O)c2c(NC(=O)CN4CCC(O)CC4)cccc2-3)cc1` came in with a melting point of 267 °C.

Take `CN1CCC(=C2c3ccccc3C=Cc3ccc(Br)cc32)CC1`: the melting point lay within 189 to 190 °C.

`CCCCCCCc1cc2cc(C(=O)OCC)ccc2[nH]1` gave a melting point of 66 to 69 °C.

With `O=[N+]([O-])c1cc([N+](=O)[O-])c(Nc2ccc(Cl)c3ccccc23)c(C(F)(F)F)c1`, the melting point lay in the range of 197 to 198 °C.

`CC(C)(C)c1cc(C(=O)NCCc2cccc([N+](=O)[O-])c2)cc(C(C)(C)C)c1O` yielded a melting point of 195 to 197 °C.

`Oc1cc(O)c(-c2nc(-c3ccccc3)nc(-c3ccccc3)n2)cc1Cl`: the melting point was 255 to 265 °C.

Turning to `Fc1ccc(C2CSCC(=S)N2)cc1` (configuration not stated), the melting point was in the range of 107 to 108 °C.

As to `CNC(=O)Nc1snc(N(C)C)c1C#N`, the melting point lay in the range of 240 to 241 °C.

Compound `Cc1cc(OCc2ccc(-c3ccccc3C(=O)O)cc2)c2ncccc2n1` came in with a melting point of 213 to 214 °C.

`COc1cccc(Nc2ncc3cc(-c4c(Cl)cccc4Cl)c(=O)n(C)c3n2)c1` came in with a melting point of 203 to 204 °C.

On to `CCC(CCOC)c1ccc(Cl)c2nc3n(c12)CCCN3c1ccc(Cl)cc1Cl` (configuration not stated), for which the melting point was 144 to 146 °C.

Compound `COc1ccc(Sc2ccccc2CC#N)cc1` registered a melting point of 65 to 67 °C.

`CCOc1ccc(C[N+](=O)[O-])c(C=CC[N+](=O)[O-])c1OCc1ccccc1` yielded a melting point of 89 to 90 °C.

Take `CCOC(=O)c1sc(N)nc1-c1ccccc1Cl`: the melting point is 162 to 164 °C.

`COc1ccc2c(C(=O)O)cn(C(C)C)c2c1` returned a melting point of 162 to 163 °C.

`COCC(=O)N[C@H]1c2ccccc2C[C@@H]1C` returned a melting point of 78 to 79 °C.

For `O=C(Nc1cccc2ccccc12)OCc1ccc(CO)cc1`, the melting point lay within 158 to 159 °C.

`COc1cc(OC)c(-c2cc3ccccc3n2C)cc1C=CC(=O)c1ccc(S(N)(=O)=O)cc1` showed a melting point of 148 to 150 °C.

`O=C(O)c1ccc(=O)n(CCCNC(=O)c2ccccn2)c1` returned a melting point of 180 to 182 °C.

Compound `CCC1=C(C)CN(C(=O)NCC2CCOc3cc(OC)c(S(=O)(=O)NC(=S)NC(C)C)cc32)C1=O` (configuration not stated) showed a melting point of 153 °C.

With `O=C(O)[C@H](Cc1ccccc1)NS(=O)(=O)N1CCOCC1`, the melting point was in the range of 157 to 158 °C.

In turn, `Cc1nnc2n1-c1ccc(Cl)cc1C(c1ccccc1)S2` (configuration not stated) returned a melting point of 237 °C.

With `CC(C)(C)[S@](=O)N1CCC[C@@H]1c1ccc(O)cc1`, the melting point is 150 °C.

Consider `Cc1cc(Nc2ccn(-c3ccccc3)n2)cc(C)c1O`, for which the melting point lay in the range of 154 to 155 °C.

Compound `COc1ccc(S(=O)(=O)C[N+](=O)[O-])s1` gave a melting point of 70 to 71 °C.

Compound `CCc1ccc(O)c(C#N)c1` registered a melting point of 95 to 98 °C.

In turn, `COc1ccccc1C1(N[C@H](CO)c2ccccc2)C(=O)Nc2ccc(Cl)cc21` (some centres not stated) came in with a melting point of 172 to 173 °C.

Turning to `O=C(Cc1ccccc1)Nc1ccc2c(c1)C(=O)c1cc(NC(=O)Cc3ccccc3)ccc1C2=O`, the melting point is 224 °C.

Consider `CCOC(=O)c1ccc(NCCOc2cccc3c2CCCC3)cc1`, for which the melting point fell in the range of 133 to 135 °C.

Compound `CC(=O)Nc1ccc(CC(=O)N[C@H]2C[C@H](C(=O)O)Nc3cc(Cl)cc(Cl)c32)cc1` (relative stereo) gave a melting point of 279 to 281 °C.

Compound `COc1ccc(Br)c(Sc2nc3c(N)nccc3n2CCCNC(C)C)c1` gave a melting point of 125 to 129 °C.

`CCOc1cc(C(F)(F)F)cc(Cl)c1-n1nc(C#N)c(SC(F)(F)F)c1N` came in with a melting point of 166 °C.

The compound `CCC(O)c1cnc2c(C)c(NC(=O)c3ccc(-c4ccc(F)cc4)cc3)ccc2c1` (configuration not stated) gave a melting point of 204 to 208 °C.

Compound `Clc1cc(C2CO2)cc(OCc2ccccc2)c1OCc1ccccc1` (configuration not stated) came in with a melting point of 154 to 159 °C.

For the compound `CCCC(=O)Nc1nn(COCC[Si](C)(C)C)c2cc(Cl)c(Br)cc12`, the melting point stood at 130 °C.

`CC(=O)OC1C(OC(=O)c2cccc([N+](=O)[O-])c2)C=C(C)C(=O)CC1(C)C` (configuration not stated) returned a melting point of 108 to 110 °C.

`Cc1cc(C)cc(Oc2nc(Cl)nc(Cl)c2C(C)C)c1` showed a melting point of 107 to 108 °C.

The compound `Cc1ncnc(-c2cc(O)c(Cl)cc2F)c1C` displayed a melting point of 176 to 178 °C.

Compound `CCOC(=O)C(c1c[nH]c2cccc(C(=O)OC)c12)C(C)[N+](=O)[O-]` (configuration not stated) gave a melting point of 106 to 110 °C.

The compound `COC(=O)c1ccc2[nH]nnc2c1C(=O)OC` displayed a melting point of 147 to 150 °C.

Turning to `CC(O)C(=O)NC1CCC(CC2CCC(NC(=O)C(C)O)CC2)CC1` (configuration not stated), the melting point fell in the range of 195 to 199 °C.

Turning to `CSc1ncc2n1-c1ccc(Cl)cc1C(c1ccccc1F)=NC2`, the melting point fell in the range of 180 to 181 °C.

Compound `COc1cc(C(=O)c2sc(NC(=O)c3ccncc3)nc2-c2ccco2)ccn1` came in with a melting point of 237 to 239 °C.

On to `O=C(Cl)OCC1c2ccccc2Oc2ccccc21`, for which the melting point was 64 to 65 °C.

Compound `CC(C)(C)C1C(O)=C(C2=NS(=O)(=O)c3c(NS(C)(=O)=O)cccc32)C(=O)N1Cc1ccc(F)cc1` (configuration not stated) gave a melting point of 245 to 250 °C.

In turn, `COC(=O)c1c(OCc2ccccc2)ccc2c1CC[C@@H](NC1CCC1)[C@@H]2O` (relative stereo) gave a melting point of 117 to 119 °C.

For the compound `COC(=O)c1ccc(OC)cc1I`, the melting point was 185 °C.

Compound `CC(C)c1ccc(/C=C/c2cc(/C=C/c3ccc4cc[nH]c4c3)n[nH]2)cc1` showed a melting point of 208 to 212 °C.

The compound `COC(=O)c1ccc(OC)c(C(C)=O)c1` came in with a melting point of 54 to 58 °C.

The compound `Cc1cc(C[C@@H](NC(=O)c2cccc3c2C=CCCC3)[C@@H](O)c2ccc(F)cc2)cc(OC(F)(F)C(F)F)c1` (racemic) displayed a melting point of 175 to 176 °C.

With `C#CCOc1ccc2cnn(C[C@H](C)NC(=O)OCc3ccccc3)c2c1`, the melting point fell in the range of 104 to 106 °C.

As to `COc1cc2ncc(N[C@H]3CC[C@H](C(=O)OC)CC3)nc2cc1OC`, the melting point was 68 to 80 °C.

Compound `CCC1Oc2ccc(-c3nc4ccccn4c3C)cc2NC1=O` (configuration not stated) registered a melting point of 216 to 217 °C.

On to `NCC1Cc2cccc(Nc3cc(Cl)cc(Cl)c3)c2O1` (configuration not stated), for which the melting point is above 250 °C.

`CCOC(=O)c1cc(Cl)c(-n2ncc(C)n2)c(Cl)c1`: the melting point lay within 136 to 138 °C.

In turn, `CC(C)C[C@H](NC(=O)OCc1ccccc1)C(=O)N[C@H]1CCOC1O` (some centres not stated) showed a melting point of 48 to 49 °C.

Compound `Cc1ccc(C2c3c(C)c(N4CCN(C)CC4)c(C)c(C)c3OC2(C)C)cc1` (configuration not stated) gave a melting point of 188 to 190 °C.

`CCc1ccc2c(c1)C=Cc1cc(C)ccc1C2c1cn(-c2ccnc(NCC(=O)Nc3nc(CC(=O)O)cs3)n2)c(=O)[nH]c1=O` (configuration not stated) returned a melting point of 217 °C.

`Nc1c(Cl)cc(C(O)CNCCCCCCOCCCCCCc2ncccn2)cc1Cl` (configuration not stated) returned a melting point of 55 to 57 °C.

Regarding `Cc1c(C)c2c(c(C)c1NC(=O)CC(C)(C)C)C(c1ccc(F)cc1)C(C)(C)O2` (configuration not stated), the melting point was 194 to 195 °C.

In turn, `Cc1ccc2[nH]c3c(c2c1)CC(=O)Nc1cccnc1-3` came in with a melting point above 330 °C.

`Cc1ccc(C[C@H](N)[C@H](O)c2ccc(F)cc2)cc1OC(F)(F)C(F)F` (racemic) yielded a melting point of 112 to 113 °C.

Regarding `CCCc1c(OCCCc2ccc3cc(OC)c(OC)cc3c2)ccc(C(=O)O)c1O`, the melting point was in the range of 165 to 168 °C.

Compound `COc1ccc2c(c1)Sc1ccccc1CN2C=O` registered a melting point of 98 to 100 °C.

As for `CCOc1cc(OCCCc2cn(-c3ccc(C(F)(F)F)cn3)nc2OC)ccc1CCC(=O)O`, the melting point was in the range of 145 to 146 °C.

In turn, `CCCn1nc2c(N)nc3ccccc3c2c1CCNS(C)(=O)=O` yielded a melting point of 187 to 188 °C.

For `O=C1Nc2cccnc2Nc2ccccc21`, the melting point is 278 to 280 °C.

Consider `COc1ccccc1COc1ccc(S(=O)(=O)c2cnc(C)nc2Nc2c(C)cc(C)cc2C)cc1`, for which the melting point was in the range of 200 to 202 °C.

Regarding `Brc1ccc2c(ccc3cc(Br)ccc32)c1`, the melting point lay in the range of 163 to 166 °C.

Take `CC(C)(C)c1ccc(Sc2cc(C(=O)O)ccc2C(=O)O)cc1`: the melting point was 325 to 326 °C.

With `O=P(Oc1ccccc1)(Oc1ccccc1)C1(N2CCOCC2)CCCCC1`, the melting point fell in the range of 103 to 106 °C.

`CCC(=O)OCCOCn1cnc2c(=O)[nH]c(N)nc21` displayed a melting point of 223 to 226 °C.

On to `COc1cccc2c(=O)[nH]c(C3CCN(C)CC3)cc12`, for which the melting point was in the range of 239 to 242 °C.

By melting point is commonly meant the temperature of the solid-liquid transition.
